Test results published in patent publication US20230135127A1, “COMPOSITIONS AND METHODS FOR DISEASE TREATMENT AND PREVENTION BY PH MODIFIERS AND/OR CELL PROLIFERATION INHIBITORS” (priority 2021, published 2023).
Where a name gives a salt, the structure may show the parent alone.

Experiments:
[1] = test system: C57BL/6 mice immunized with MOG35-55 (EAE); conditions: for mice with clinical scores lower than at initiation of treatment: by day 4, 5 HCl mice, 9 HOAc mice; for average EAE clinical score: day 4 after initiation of treatment, saline 3.46; for inflammation in the spinal cords (histology): day 4 post initiation of treatment; for mice that reached clinical score of 4 or above: i.p. 87.5 mM, 4 doses from score 1.5-2.5, saline 10 of the 11
Method: Induction of experimental autoimmune encephalomyelitis (EAE), the mouse model of multiple sclerosis, was carried out as previously described. (94). (Also see https://hookelabs.com/protocols/eaeAI_C57BL6.html). […] The final antigen emulsion comprised 1.5 mg/ml of MOG35-55, 189 μg/ml of M. tuberculosis H37Ra and 50% (by volume) IFA.
Female C57BL/6 mice of 9 weeks old were acclimated at CRDAL for 1 week. On day 0, mice were immunized by s.c. (subcutaneous) injection of the antigen emulsion at 4 evenly distributed sites in the dorsal area (25 μl/site). Two hours later, the mice were i.p. injected with Pertussis Toxin (List Biological laboratories, Campbell, Calif., USA) freshly prepared in ice-cold PBS (200 ng in 100 μl PBS/mouse). On day 1, the mice received a second i.p. injection of Pertussis Toxin at the same dosage. […] Mice with clinical score of 3 or above were provided wet chows and hydrogels.
In the EAE model of Example 2, two types of experiments, i.e., therapeutic and preventive experiments, were carried out. For the therapeutic experiments, on the day when the mice first reached the clinical scores of 1.5 to 2.5, the mice received i.p. treatments with saline, or saline plus 87.5 mM HCl or HOAc. The mice received additional 3 i.p. treatments every other day. […] The mice received i.p. treatments every other day for additional 2 doses. Clinical scores of all mice were recorded daily during and after the treatment periods, but experimentation was terminated on mice that reached clinical score of 5. As specified in some experiments, mice were sacrificed, and spinal cords were collected for histology analyses.
Lungs (after BALF collection), spinal cords and intestines were harvested and fixed in 10% neural formalin (Fisher Scientific, Kalamazoo, Mich., USA). […] Periodic acid-Schiff (PAS) staining was also performed with the lung tissue sections to determine mucus secretion in the lungs as a result of the inflammatory infiltration.

[2] = test system: Raji cells; test: In vitro treatment of Raji tumor cells in FBS
Method: Jurkat and Raji tumor cell lines were maintained in Complete RPMI-1640 Medium (RPMI-1640 plus 1× GlutaMAX, 100 U/ml Pen-Strep (Gibco Life Technologies, Grand Island, N.Y., USA), and 5% heat-inactivated fetal bovine serum (FBS) (Atlanta Biologicals, Flowery Branch, Ga., USA)) at 37° C. and 5% CO2. The tumor cells were washed 3 times with saline plus 1% FBS before in vitro treatments with saline or saline plus pH modifiers.
For studies of the effects of pH modifier on proliferating cells, primary thymocytes or lymph node cells (4×10^6 cells/ml) were incubated in FBS comprising 10% of saline or 87.5 mM HCl, HOAc or NaOH prepared in saline in 37° C. water bath for 5 hours before analyses. The tumor cells (2×10^6 cells/ml) were incubated in FBS comprising 10% saline or 87.5 mM HCl, HOAc, or NaOH prepared in saline in 37° C. water bath for 3-5 hours.
Cells were washed 3 times with PBS then stained with Zombie viability dyes at room temperature for 20 minutes. At the end of incubation, 10% volume of FBS was added to absorb excess Zombie dyes. […] 7-AAD was added to the cells before analyzed by flow cytometry. […] Stained and unstained cells were analyzed on Accuri C6 Flow Cytomer (Accuri Cytometers, Inc., Ann Arbor, Mich.), FACS Canto (BD Bioscience, San Jose, Calif., USA) and Attune™ cytometer (Invitrogen, Carlsbad, Calif.). […]

[3] = test system: lymphocytes, eosinophils, macrophages in BALF; neutrophils in blood
Method: Cells were washed 3 times with PBS then stained with Zombie viability dyes at room temperature for 20 minutes. At the end of incubation, 10% volume of FBS was added to absorb excess Zombie dyes. After washes, the cells were stained with conjugated antibodies against surface antigens on ice. As specified in some experiments, the cells were subsequently stained with fluorochrome-conjugated Avidin. For Annexin V staining, cells were washed twice with plain PBS and once with Annexin V binging buffer (10 mM HEPES, pH7.4, 140 mM NaCl, 2.5 mM CaCl2)) after surface antigen staining, and incubated with fluorochrome-conjugated Annexin V in Annexin V binding buffer for 15 min at room temperature. The cells were washed twice in Annexin V binding buffer and resuspended in Annexin V binding buffer. 7-AAD was added to the cells before analyzed by flow cytometry. For Ki-67 and Foxp3 staining, lymphocytes (after Zombie dye and surface antigen staining) or tumor cells (without surface antigen staining) were fixed and permeabilized using Foxp3 staining buffer kit, then stained with PE-conjugated anti-mouse or human Ki-67 antibodies. (Biolegend, San Diego, Calif., USA). Stained and unstained cells were analyzed on Accuri C6 Flow Cytomer (Accuri Cytometers, Inc., Ann Arbor, Mich.), FACS Canto (BD Bioscience, San Jose, Calif., USA) and Attune™ cytometer (Invitrogen, Carlsbad, Calif.). Data analyses were carried out using FlowJo X.

[4] = test system: granulocytes and lymphocytes in the blood; conditions: RBC-depleted blood
[5] = test system: C57BL/6 mice immunized with MOG35-55 (EAE)
[6] = test system: lesions of allergic contact dermatitis
[7] = test system: mice
[8] = about 5.25M in water, topical 4 times a day, day 1

For `Cl` [HCl, hydrochloric acid], the “mice with clinical scores lower than at initiation of treatment” value [1] was “all”, the “average EAE clinical score” value [1] was 0.9 and the “inflammation in the spinal cords (histology)” value [1] was “no obvious inflammation”. For the same molecule, the “mice that reached clinical score of 4 or above” value [1] was “none of the 5” and the “viability (live cells) of Raji cells” value ([2]; FBS with 10% of 87.5 mM modifier, 37° C., 3-5 hours, saline 89.4%) was 49.2%.
With `CC(=O)O` [HOAc, acetic acid] the “apoptotic (Annexin V+7-AAD+) macrophages in BALF” value ([3]; i.t. after 3rd challenge, saline 0.71%) was 56.4%, the “apoptotic (Annexin V+7-AAD+) eosinophils in BALF” value ([3]; i.t. after 3rd challenge, saline 2.87%) was 95.2% and the “apoptotic (Annexin V+7-AAD+) lymphocytes in BALF” value ([3]; i.t. after 3rd challenge, saline 3.15%) was 85.3%. For the same molecule, the “apoptotic neutrophils (Ly6G high) in blood” value ([3]; saline 7.61%) was 38.4%, the “mice with clinical scores lower than at initiation of treatment” value [1] was 6 and the “average EAE clinical score” value [1] was 1.78. For the same molecule, the “inflammation in the spinal cords (histology)” value [1] was “no obvious inflammation”, the “mice that reached clinical score of 4 or above” value [1] was 1 of the 9 and the “mice whose clinical score remained the same” value ([1]; mouse, in vivo) was 2. The “viability (live cells) of Raji cells” value ([2]; human, 8.75 mM) was 48.9%, the “percentage of lymphocytes in blood” value ([4]; saline 22.9%) was 13.6% and the “percentage of granulocytes in blood” value ([4]; saline 32.6%) was 1.1%. The “rate of disease onset (mice with EAE)” value ([5]; day 2 after initiation of i.p. treatment, saline 50%) was 30%, the “maximum rate of disease onset” value ([5]; reached 5 days after initiation, saline 80% on day 3) was 60% and the “rash in lesion 2” value [6, 8] was “almost completely disappeared”. The “rashes in lesion 1” value [6, 8] was “partially disappeared” and the “rashes in both lesions” value ([6]; by day 2 and day 3, treated day 0 and day 1) was “completely disappeared”.
For `[Na+].[OH-]` [NaOH, sodium hydroxide], the “tolerance of i.t. instillation” value [7] was “poorly tolerant”.
